The results in this text go back to patent publication US6121489A (priority 1997, dated 2000).

The assay deals with α-glucosidase from bakers yeast. The assay is described as follows: α-Glucosidase inhibition assay, p-nitrophenyl-α-D-glucopyranoside substrate, 96-well format. It is filed as biochemical. Particulars: concentration necessary for 50% enzyme inhibition.

Molecules are shown by their SMILES.

The IC50 is the concentration that gives 50% inhibition. A high value points to weaker potency. `NC(Cc1cn(Cc2ccc3ccccc3c2)c2ccccc12)C(=O)N(Cc1ccc2ccccc2c1)C(CC1CCCCC1)C(=O)NCc1ccccc1` (stereo not drawn) [R-(cyclohexylmethyl)] showed an IC50 of over 1000 µM.
`CCN(C(=O)[C@@H](N)Cc1ccccc1)[C@H](Cc1ccc(O)cc1)C(=O)NCc1ccc2ccccc2c1` [R-(4-hydroxybenzyl)]: the IC50 was determined as 540 µM.
The compound `CCN(C(=O)[C@@H](N)Cc1ccccc1)[C@@H](Cc1ccc2ccccc2c1)C(=O)NCc1ccc2ccccc2c1` [S-(napth-2-ylmethyl)] returned an IC50 of over 1000 µM.
Consider `CC(O)C(C(=O)NCc1ccccc1)N(Cc1ccc2ccccc2c1)C(=O)C(N)Cc1cn(Cc2ccc3ccccc3c2)c2ccccc12` (stereo not drawn) [R-(1-hydroxyethyl)], for which the IC50 was over 1000 µM.
As to `N[C@@H](Cc1cn(Cc2ccc3ccccc3c2)c2ccccc12)C(=O)N(Cc1ccc2ccccc2c1)[C@@H](Cc1cn(Cc2ccccc2)c2ccccc12)C(=O)NCc1ccccc1` [S-(N'-benzylindol-3-ylmethyl)], the IC50 amounted to 632 µM.
With `NC(Cc1cn(Cc2ccc3ccccc3c2)c2ccccc12)C(=O)N(Cc1ccc2ccccc2c1)C(CO)C(=O)NCc1ccccc1` (stereo not drawn) [S-(1-hydroxymethyl)], the IC50 was found to be 176 µM.
Turning to `N[C@@H](Cc1cn(Cc2ccc3ccccc3c2)c2ccccc12)C(=O)N(Cc1ccc2ccccc2c1)[C@@H](CCC(=O)O)C(=O)NCc1ccccc1` [S-(2-carboxyethyl)], the IC50 is over 1000 µM.
`NC(Cc1cn(Cc2ccc3ccccc3c2)c2ccccc12)C(=O)N(Cc1ccc2ccccc2c1)C(Cc1cn(Cc2ccccc2)c2ccccc12)C(=O)NCc1ccccc1` (stereo not drawn) [R-(N'-benzylindol-3-ylmethyl)] had an IC50 of 552 µM.
As for `N[C@@H](Cc1cn(Cc2ccc3ccccc3c2)c2ccccc12)C(=O)N(CCC(=O)NCc1ccccc1)Cc1ccc2ccccc2c1` [hydrogen atom, AA = 1], inhibition was half-maximal at 770 µM (IC50).
Under `CC(O)C(C(=O)NCc1ccccc1)N(Cc1ccc2ccccc2c1)C(=O)C(N)Cc1cn(Cc2ccc3ccccc3c2)c2ccccc12` (stereo not drawn) [R'-(1-hydroxyethyl)] stands 678 µM.
`N[C@@H](Cc1cn(Cc2ccc3ccccc3c2)c2ccccc12)C(=O)N(Cc1ccc2ccccc2c1)[C@H](Cc1ccc2ccccc2c1)C(=O)NCc1ccccc1` [R-(napth-2-ylmethyl)] gave an IC50 of over 1000 µM.
In turn, `CCN(C(=O)[C@@H](N)Cc1ccccc1)[C@H](C(=O)NCc1ccc2ccccc2c1)c1ccccc1` [S-(phenyl)] came in with an IC50 of 184 µM.
